Reference: PMC3679788, “Factors affecting antiretroviral pharmacokinetics in HIV-infected women with virologic suppression on combination antiretroviral therapy: a cross-sectional study” (BMC Infectious Diseases, 2013)
Like-named read-outs stand apart in the source and are kept apart here.

Columns and labels:
[1] = cited from earlier work
[2] = Plasma Cmin and Cmax of PI/NNRTI in HIV-positive women on cART (LC-MS/MS); type: in vivo, human; details: for Cmin Intra-patient CV median (IQR) / Cmax n (%) >1.5 Historical pop mean (percent of participants) / Cmin n (%) >1.5 historical pop Mean (percent of participants) / Cmax Inter-patient CV / Cmin Inter-patient CV / Cmin Study participants median (IQR) / Cmin Mean (SD) / Cmax / Cmax median ratio to historical population mean (IQR) / Cmin median ratio to historical population mean (IQR) / Cmax at 5 h / Cmax at 3 h / Cmax at 2 h: HIV-positive women; for Cmin Intra-patient CV median (IQR): 3 weekly visits; for Cmax Inter-patient CV: from individual median Cmax; for Cmin Inter-patient CV: from individual median Cmin; for Cmin Study participants median (IQR) / Cmin Mean (SD) / Cmax / Cmax at 5 h / Cmax at 3 h / Cmax at 2 h: plasma; for Cmin Study participants median (IQR) / Cmin Mean (SD): pre-dose, in ng/mL; for inter-patient variability (CV) for both Cmin and Cmax, in words / intra-patient variability for Cmax, in words / intra-patient variability for Cmin, in words: compared among the regimens; for inter-patient variability (CV) for both Cmin and Cmax, in words / intra-patient variability for Cmax, in words: nevirapine and lopinavir/ritonavir as BID; for Cmax / Cmax at 5 h / Cmax at 3 h / Cmax at 2 h: female, human, oral; for intra-patient variability for Cmin, in words: nevirapine as BID; for Cmax at 5 h: 600 mg, 5 hours post-dose; for Cmax at 3 h: 3 hours post-dose; for Cmax at 2 h: 2 hours post-dose
Procedure: Patients were asked to fast from midnight of the previous night. One hour before their scheduled morning dose the pre-dose blood collection was drawn (Cmin t) (alternative arrangements were made if the patient took their drugs in the evening). […] Concentrations of the PIs and the NNRTIs in plasma were measured simultaneously by sensitive and selective, validated high-performance liquid chromatography coupled to tandem mass-spectroscopy (LC-MS/MS). All samples were analyzed at the pharmacokinetic laboratory at the Ottawa Hospital Research Institute in Ottawa, Canada. The PK endpoints for each patient were determined by taking the median of the three weekly values for the Cmin and Cmax. The rationale for measuring drug levels at three separate time points was that there is potentially intra-individual variability in drug levels, especially for PIs. Using the median value for the endpoints eliminated outliers. The three drug level measurements allowed for the calculation of intra-patient variability. […] Next, for each subject the ratio of their median Cmin and Cmax for their main PI or NNRTI to this published drug level was calculated and used as the primary outcome as previously reported by Burger et al. […] Inter-patient variability of Cmin and Cmax for each antiretroviral drug was assessed by calculating the coefficient of variation (CV) using each individual’s median Cmin and Cmax. […] These values are summarized using median and IQR of the individual CVs. […] Finally, linear regression models were fit to assess correlates of the square root-transformed Cmin and Cmax ratios. […] The regression models included indicator variables to account for the different antiretroviral medications and each potential correlate was included separately in an adjusted model. Statistical analyses were performed using SAS Version 9.2 (SAS Institute, Cary, North Carolina, USA).

[3] = historical HIV population, atazanavir 400 mg QD; cited from earlier work
[4] = compared among the antiretrovirals
[5] = 400 mg, 400 mg QD, read-out: Cmax Study participants median (IQR)
[6] = 400 mg, 400 QD, read-out: Cmax Mean (SD)

SMILES: Cc1cccc(C)c1OCC(=O)N[C@@H](Cc1ccccc1)[C@@H](O)C[C@H](Cc1ccccc1)NC(=O)[C@H](C(C)C)N1CCCNC1=O [Lopinavir boosted with ritonavir, lopinavir]
- increase in AUC in women ([1]; in vivo): approximately 20%
- Cmin Intra-patient CV median (IQR) ([2]; 400 BID boosted with ritonavir): 23.8 (12.8-75.8)
- Cmin Intra-patient CV median (IQR) ([2]; 800 QD boosted with ritonavir): 63.4 (35.2- 115)
- Cmax n (%) >1.5 Historical pop mean (percent of participants) ([2]; 400 BID boosted with ritonavir): 0 (0.0%)
- Cmin n (%) >1.5 historical pop Mean (percent of participants) ([2]; 400 BID boosted with ritonavir): 3 (18.8%)
- Cmax n (%) >1.5 Historical pop mean (percent of participants) ([2]; 800 QD boosted with ritonavir): 0 (0.0%)
- Cmin n (%) >1.5 historical pop Mean (percent of participants) ([2]; 800 QD boosted with ritonavir): 3 (75.0%)
- Cmax n (%) >1.5 Historical pop mean (percent of participants) ([2]; all doses of the drug pooled): 0 (0.0%)
- Cmin n (%) >1.5 historical pop Mean (percent of participants) ([2]; all doses of the drug pooled): 6 (30.0%)
- Cmax Inter-patient CV ([2]; 400 BID boosted with ritonavir): 32.8%
- Cmax Inter-patient CV ([2]; 800 QD boosted with ritonavir): 39.8%
- Cmin Inter-patient CV ([2]; 400 BID boosted with ritonavir): 44.7%
- Cmin Inter-patient CV ([2]; 800 QD boosted with ritonavir): 72.5%
- Cmin Study participants median (IQR) ([2]; 400 mg BID with ritonavir 100 mg): 6660 (4360–7710)
- Cmin Study participants median (IQR) ([2]; 800 mg QD with ritonavir 200 mg): 6445 (2452–8260)
- Cmin Mean (SD) ([2]; 400 BID boosted with ritonavir): 6370.0 (2846.4)
- Cmin Mean (SD) ([2]; 800 QD boosted with ritonavir): 5356.2 (3882.3)
- inter-patient variability (CV) for both Cmin and Cmax, in words [2]: least inter-patient variability
- intra-patient variability for Cmax, in words [2]: lowest intra-patient variability
- Cmax ([2]; 800 mg QD with ritonavir 200 mg, read-out: Cmax Study participants median (IQR)): 11.7 µg/mL
- Cmax ([2]; 800 QD boosted with ritonavir, read-out: Cmax Mean (SD)): 11.2 µg/mL

SMILES: O=C1Nc2ccc(Cl)cc2[C@@](C#CC2CC2)(C(F)(F)F)O1 [Efavirenz, efavirenz]
- serum levels in women ([1]; in vivo): higher
- Cmin Intra-patient CV median (IQR) ([2]; 600 QD): 17.7 (10.5-25.1)
- Cmax median ratio to historical population mean (IQR) ([2]; 600 QD): 0.79 (0.57-1.27)
- Cmax n (%) >1.5 Historical pop mean (percent of participants) ([2]; 600 QD): 4 (25.0%)
- Cmin median ratio to historical population mean (IQR) ([2]; 600 QD): 0.95 (0.67-1.95)
- Cmin n (%) >1.5 historical pop Mean (percent of participants) ([2]; 600 QD): 6 (37.5%)
- Cmax Inter-patient CV ([2]; 600 QD): 52.4%
- Cmin Inter-patient CV ([2]; 600 QD): 55.0%
- Cmin Study participants median (IQR) ([2]; 600 mg QD): 1680 (1180–3450)
- Cmin Mean (SD) ([2]; 600 QD): 2196.9 (1209.2)
- intra-patient variability for Cmax, in words [2]: lowest intra-patient variability
- intra-patient variability for Cmin, in words [2]: lowest intra-patient variability
- Cmax at 5 h ([2]; 600 mg QD, read-out: Cmax Study participants median (IQR)): 3.23 µg/mL
- Cmax at 5 h ([2]; 600 QD, read-out: Cmax Mean (SD)): 3.93 µg/mL

SMILES: COC(=O)N[C@H](C(=O)N[C@@H](Cc1ccccc1)[C@@H](O)CN(Cc1ccc(-c2ccccn2)cc1)NC(=O)[C@@H](NC(=O)OC)C(C)(C)C)C(C)(C)C [Atazanavir boosted with ritonavir, atazanavir]
- Cmin Intra-patient CV median (IQR) ([2]; 300 QD boosted with ritonavir): 26.3 (15.6-56.1)
- Cmax median ratio to historical population mean (IQR) ([2]; 300 QD boosted with ritonavir): 0.66 (0.51-0.85)
- Cmax n (%) >1.5 Historical pop mean (percent of participants) ([2]; 300 QD boosted with ritonavir): 0 (0.0%)
- Cmin median ratio to historical population mean (IQR) ([2]; 300 QD boosted with ritonavir): 0.97 (0.77-1.42)
- Cmin n (%) >1.5 historical pop Mean (percent of participants) ([2]; 300 QD boosted with ritonavir): 4 (22.2%)
- Cmax Inter-patient CV ([2]; 300 QD boosted with ritonavir): 41.4%
- Cmin Inter-patient CV ([2]; 300 QD boosted with ritonavir): 65.6%
- Cmin Study participants median (IQR) ([2]; 300 mg QD with ritonavir 100 mg): 835 (663–1220)
- Cmin Mean (SD) ([2]; 300 QD boosted with ritonavir): 1065.6 (699.2)
- Cmax at 3 h ([2]; 300 mg QD with ritonavir 100 mg, read-out: Cmax Study participants median (IQR)): 3.43 µg/mL
- Cmax at 3 h ([2]; 300 QD boosted with ritonavir, read-out: Cmax Mean (SD)): 3.53 µg/mL

SMILES: Cc1ccnc2c1NC(=O)c1cccnc1N2C1CC1 [Nevirapine, nevirapine]
- exposure in pregnant women ([1]; in vivo): lower
- serum levels in women ([1]; in vivo): higher
- Cmin Intra-patient CV median (IQR) ([2]; 200 BID): 13.9 (10.2-27.8)
- Cmin Intra-patient CV median (IQR) ([2]; 400 QD): 21.3 (12.1-44.9)
- Cmax median ratio to historical population mean (IQR) ([2]; 200 BID): 0.96 (0.84-1.37)
- Cmax n (%) >1.5 Historical pop mean (percent of participants) ([2]; 200 BID): 2 (18.2%)
- Cmin median ratio to historical population mean (IQR) ([2]; 200 BID): 1.41 (0.91-1.93)
- Cmin n (%) >1.5 historical pop Mean (percent of participants) ([2]; 200 BID): 5 (45.5%)
- Cmax median ratio to historical population mean (IQR) ([2]; 400 QD): 0.96 (0.72-1.40)
- Cmax n (%) >1.5 Historical pop mean (percent of participants) ([2]; 400 QD): 1 (12.5%)
- Cmin median ratio to historical population mean (IQR) ([2]; 400 QD): 2.08 (0.90-2.53)
- Cmin n (%) >1.5 historical pop Mean (percent of participants) ([2]; 400 QD): 5 (62.5%)
- Cmax median ratio to historical population mean (IQR) ([2]; all doses of the drug pooled): 0.96 (0.81-1.37)
- Cmax n (%) >1.5 Historical pop mean (percent of participants) ([2]; all doses of the drug pooled): 3 (15.8%)
- Cmin median ratio to historical population mean (IQR) ([2]; all doses of the drug pooled): 1.62 (0.91-2.32)
- Cmin n (%) >1.5 historical pop Mean (percent of participants) ([2]; all doses of the drug pooled): 10 (52.6%)
- Cmax Inter-patient CV ([2]; 200 BID): 37.8%
- Cmax Inter-patient CV ([2]; 400 QD): 39.9%
- Cmin Inter-patient CV ([2]; 200 BID): 45.4%
- Cmin Inter-patient CV ([2]; 400 QD): 57.0%
- Cmin Study participants median (IQR) ([2]; 200 mg BID): 5270 (3380–7190)
- Cmin Study participants median (IQR) ([2]; 400 mg QD): 5995 (2590–7275)
- Cmin Mean (SD) ([2]; 200 BID): 5693.6 (2586.8)
- Cmin Mean (SD) ([2]; 400 QD): 5027.9 (2867.2)
- Cmin ratio to published population mean, in words [2, 4]: highest ratios
- inter-patient variability (CV) for both Cmin and Cmax, in words [2]: least inter-patient variability
- intra-patient variability for Cmax, in words [2]: lowest intra-patient variability
- intra-patient variability for Cmin, in words [2]: lowest intra-patient variability
- Cmax at 2 h ([2]; 200 mg, 200 mg BID, read-out: Cmax Study participants median (IQR)): 5.51 µg/mL
- Cmax at 2 h ([2]; 200 mg, 200 BID, read-out: Cmax Mean (SD)): 6.49 µg/mL
- Cmax at 2 h [2, 5]: 6.4 µg/mL
- Cmax at 2 h [2, 6]: 6.92 µg/mL

SMILES: COC(=O)N[C@H](C(=O)N[C@@H](Cc1ccccc1)[C@@H](O)CN(Cc1ccc(-c2ccccn2)cc1)NC(=O)[C@@H](NC(=O)OC)C(C)(C)C)C(C)(C)C [Atazanavir, atazanavir]
- increase in AUC in women ([1]; in vivo): approximately 20%
- Cmax Population mean [3]: 3.15 µg/mL
- Cmin Intra-patient CV median (IQR) ([2]; 400 QD): 57.4 (40.5-86.7)
- Cmax median ratio to historical population mean (IQR) ([2]; 400 QD): 0.59 (0.31-0.94)
- Cmax n (%) >1.5 Historical pop mean (percent of participants) ([2]; 400 QD): 0 (0.0%)
- Cmin median ratio to historical population mean (IQR) ([2]; 400 QD): 0.78 (0.35-1.37)
- Cmin n (%) >1.5 historical pop Mean (percent of participants) ([2]; 400 QD): 2 (22.2%)
- Cmax median ratio to historical population mean (IQR) ([2]; all doses of the drug pooled): 0.65 (0.44-0.87)
- Cmax n (%) >1.5 Historical pop mean (percent of participants) ([2]; all doses of the drug pooled): 0 (0.0%)
- Cmin median ratio to historical population mean (IQR) ([2]; all doses of the drug pooled): 0.95 (0.53-1.42)
- Cmin n (%) >1.5 historical pop Mean (percent of participants) ([2]; all doses of the drug pooled): 6 (22.2%)
- Cmax Inter-patient CV ([2]; 400 QD): 57.3%
- Cmin Inter-patient CV ([2]; 400 QD): 78.0%
- Cmin Study participants median (IQR) ([2]; 400 mg QD): 214 (95–373)
- Cmin Mean (SD) ([2]; 400 QD): 250.4 (195.4)
- inter-patient variability, in words [2, 4]: greatest observed inter-patient variability
- ratios of both Cmin and Cmax versus historical reference values, in words [2, 4]: lowest ratios
- Cmax at 2 h [2, 5]: 1.87 µg/mL
- Cmax at 2 h [2, 6]: 2 µg/mL
- Inter- and intra-patient variability, in words ([2]; particularly when not boosted with ritonavir): high

SMILES: CC(C)(C)NC(=O)[C@@H]1C[C@@H]2CCCC[C@@H]2CN1C[C@@H](O)[C@H](Cc1ccccc1)NC(=O)[C@H](CC(N)=O)NC(=O)c1ccc2ccccc2n1 [saquinavir]
- serum levels in women versus men ([1]; in vivo): significantly higher in women than in men

SMILES: CC(C)CN(C[C@@H](O)[C@H](Cc1ccccc1)NC(=O)O[C@H]1CO[C@H]2OCC[C@H]21)S(=O)(=O)c1ccc(N)cc1 [darunavir]
- increase in AUC in women ([1]; women versus men, product monographs): approximately 20%
